As a reminder, the Dmax is the largest share of the target that was removed. What is called DC50 is the midpoint of the concentration-degradation curve.

Where two headings read alike, the source gives them in different places.

The test system of one assay is JeKo-1 cells. The assay can be described thus: Antiproliferative effect, MTS cell viability assay, JeKo-1 cells. The assay is classed as cell-based. Particulars: Homo sapiens; JeKo-1 mantle cell lymphoma cells; read-out: IC50 (anti-proliferation) JeKO-1 cells. The method in brief: (§1)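 Readout was MTS-derived formazan absorbance (490 nm) reflecting metabolically active cells. Treatment lasted 72 h over a 0–10 μM range (0.001, 0.01, 0.1, 1, 10 μM) in JeKo-1 and Mino B-cell malignancy cells.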
(Tetrazolium dyes change colour on reduction, which living cells bring about.)

A further assay addresses BTK (Homo sapiens, UniProt Q06187). The assay can be described thus: Degradation of BTK protein in Namalwa cells (Western blot; DC50, Dmax). Particulars: for DC50: cell line not given. On the technique in general: In western blotting, separated proteins are transferred to a membrane and probed.
For the next assay, the system named is Mino cells. The assay can be described thus: Antiproliferative effect, MTS cell viability assay, Mino cells. The class given is cell-based. Particulars: Homo sapiens, MINO, Mino mantle cell lymphoma cells; read-out: IC50 (anti-proliferation) Mino cells. The method in brief: as §1
Setting [1] is: read-out: DC50 (BTK degradation), concentration giving 50% reduction of BTK expression level.
Setting [2] is: read-out: Dmax (BTK degradation).

BTK, sequence (Q06187 whole entry): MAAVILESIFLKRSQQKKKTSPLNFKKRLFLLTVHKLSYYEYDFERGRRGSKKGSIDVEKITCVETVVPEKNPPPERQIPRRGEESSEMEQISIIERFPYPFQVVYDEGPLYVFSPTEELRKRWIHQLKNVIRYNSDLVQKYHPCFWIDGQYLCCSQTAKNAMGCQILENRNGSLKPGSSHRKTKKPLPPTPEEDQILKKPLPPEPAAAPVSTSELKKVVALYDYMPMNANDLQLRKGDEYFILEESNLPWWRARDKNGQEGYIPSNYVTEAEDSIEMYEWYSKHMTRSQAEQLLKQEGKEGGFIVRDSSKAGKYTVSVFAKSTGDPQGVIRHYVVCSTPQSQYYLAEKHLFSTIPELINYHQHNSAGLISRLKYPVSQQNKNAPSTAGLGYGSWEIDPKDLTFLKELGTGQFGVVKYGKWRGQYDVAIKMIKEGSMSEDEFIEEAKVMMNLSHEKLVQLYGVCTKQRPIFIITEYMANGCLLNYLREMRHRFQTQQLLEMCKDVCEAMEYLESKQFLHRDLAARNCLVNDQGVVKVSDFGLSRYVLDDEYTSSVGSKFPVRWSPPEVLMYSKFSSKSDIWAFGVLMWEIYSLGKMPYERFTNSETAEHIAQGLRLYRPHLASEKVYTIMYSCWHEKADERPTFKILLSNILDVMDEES

As to `NC(=O)c1c(-c2ccc(Oc3ccccc3)cc2)nn2c1NCCC2C1CCN(C2CCN(C(=O)N3CCN(CC4CCN(c5ccc6c(c5)C(=O)N(C5CCC(=O)NC5=O)C6=O)CC4)CC3)CC2)CC1` (centres unmarked) [Compound 351, 7-(1′-(4-((1-(2-(2,6-dioxopiperidin-3-yl)-1,3-dioxoisoindolin-5-yl)piperidin-4-yl)methyl)piperazine-1-carbonyl)-[1,4′-bipiperidin]-4-yl)-2-(4-phenoxyphenyl)-4,5,6,7-tetrahydropyrazolo[1,5-a]pyrimidine-3-carboxamide], the figures for the IC50 in the assay on JeKo-1 cells and in the assay on Mino cells were 1000 to 10000 nM and less than 1000 nM, respectively. This molecule also yielded a Dmax on BTK of more than 90%. This molecule also showed a DC50 on BTK (BTK degradation) of 10 to 50 nM.
On to `NC(=O)c1c(-c2ccc(Oc3ccccc3)cc2)nn2c1NCC[C@H]2C1CCN(C2CCN(C(=O)N3CCC(CN4CCC(c5ccc6c(c5)CN(C5CCC(=O)NC5=O)C6=O)CC4)CC3)CC2)CC1` (stereo partly drawn) [Compound 396, (7S)-7-(1′-(4-((4-(2-(2,6-dioxopiperidin-3-yl)-1-oxoisoindolin-5-yl)piperidin-1-yl)methyl)piperidine-1-carbonyl)-[1,4′-bipiperidin]-4-yl)-2-(4-phenoxyphenyl)-4,5,6,7-tetrahydropyrazolo[1,5-a]pyrimidine-3-carboxamide], for which the IC50 in the assay with JeKo-1 cells is more than 10000 nM; in the assay with Mino cells it was 1000 to 10000 nM. For the same molecule, the DC50 on BTK (setting [1]) is 10 to 50 nM. In addition, the Dmax on BTK (setting [2]) is more than 75%.
Consider `NC(=O)c1c(-c2ccc(Oc3ccccc3)cc2)nn2c1NCC[C@H]2C1CCN(C2CCN(CCN3CCC(c4ccc5c(c4)CN(C4CCC(=O)NC4=O)C5=O)CC3)CC2)CC1` (stereo partly drawn) [Compound 328, (7S)-7-(1′-(2-(4-(2-(2,6-dioxopiperidin-3-yl)-1-oxoisoindolin-5-yl)piperidin-1-yl)ethyl)-[1,4′-bipiperidin]-4-yl)-2-(4-phenoxyphenyl)-4,5,6,7-tetrahydropyrazolo[1,5-a]pyrimidine-3-carboxamide], for which the IC50 in the assay on JeKo-1 cells and in the assay on Mino cells was 1000 to 10000 nM throughout. The molecule further gave a Dmax on BTK of more than 75%. The same molecule yielded a DC50 at BTK (BTK degradation) of 10 to 50 nM.
With `Nc1ncnc2c1c(-c1ccc(Oc3ccccc3)cc1)nn2[C@@H]1CCCN(C2CCN(CC3CCN(c4ccc(N5CCC(=O)NC5=O)cc4)CC3)CC2)C1` [Compound 528, (R)-1-(4-(4-((3-(4-amino-3-(4-phenoxyphenyl)-1H-pyrazolo[3,4-d]pyrimidin-1-yl)-[1,4′-bipiperidin]-1′-yl)methyl)piperidin-1-yl)phenyl)dihydropyrimidine-2,4(1H,3H)-dione], the IC50 in the assay on JeKo-1 cells and with Mino cells was 1000 to 10000 nM each time. Further, the DC50 on BTK (setting [1]) fell in the range of 10 to 50 nM. Moreover, on BTK (setting [2]), the Dmax was more than 75%.
Take `NC(=O)c1c(-c2ccc(Oc3ccccc3)cc2)nn2c1NCC[C@H]2C1CCN(C2CCN(CCC3CCN(c4ccc5c(c4)C(=O)N(C4CCC(=O)NC4=O)C5=O)CC3)CC2)CC1` (some centres unmarked) [Compound 325]: the IC50 in the assay with JeKo-1 cells and in the assay with Mino cells was 1000 to 10000 nM throughout. This molecule also gave a Dmax on BTK of more than 90%. The molecule also showed a DC50 at BTK (BTK degradation) of 10 to 50 nM.
Consider `Nc1ncnc2c1c(-c1ccc(Oc3ccccc3)cc1)nn2C1CCN(C2CCN(CCC3CCN(c4ccc5c(c4)CN(C4CCC(=O)NC4=O)C5=O)CC3)CC2)CC1` (centres unmarked) [Compound 216, 3-(5-(4-(2-(4-(4-amino-3-(4-phenoxyphenyl)-1H-pyrazolo[3,4-d]pyrimidin-1-yl)-[1,4′-bipiperidin]-1′-yl)ethyl)piperidin-1-yl)-1-oxoisoindolin-2-yl)piperidine-2,6-dione], for which the IC50 with JeKo-1 cells and in the assay with Mino cells was less than 1000 nM throughout. On BTK, the Dmax was more than 75%. On BTK (BTK degradation), this molecule displayed a DC50 of 10 to 50 nM.
Consider `Nc1ncnc2c1c(-c1ccc(Oc3ccccc3)cc1)nn2C1CCN(CC2CCN(CCCN3CCN(c4ccc5c(c4)C(=O)N(C4CCC(=O)NC4=O)C5=O)CC3)CC2)CC1` (centres unmarked) [Compound 207], for which the IC50 with JeKo-1 cells and with Mino cells was more than 10000 nM in each case. The Dmax at BTK is more than 75%. Also, the DC50 on BTK (BTK degradation) was more than 50 nM.
`Nc1ncnc2c1c(-c1ccc(Oc3ccccc3)cc1)nn2C1CCN(C[C@@H]2CCN(CC3CCN(c4ccc5c(c4)C(=O)N(C4CCC(=O)NC4=O)C5=O)CC3)C2)CC1` (stereo partly drawn) [Compound 445b, 5-(4-(((S)-3-((4-(4-amino-3-(4-phenoxyphenyl)-1H-pyrazolo[3,4-d]pyrimidin-1-yl)piperidin-1-yl)methyl)pyrrolidin-1-yl)methyl)piperidin-1-yl)-2-(2,6-dioxopiperidin-3-yl)isoindoline-1,3-dione]: the IC50 in the assay on JeKo-1 cells and in the assay with Mino cells was 1000 to 10000 nM throughout. In addition, the DC50 on BTK (setting [1]) was in the range of 10 to 50 nM. The Dmax on BTK (setting [2]) was more than 90%.
For the molecule `NC(=O)c1c(-c2ccc(Oc3ccccc3)cc2)nn2c1NCC[C@H]2C1CCN(CC2CCN(CCN3CCC(c4ccc5c(c4)CN(C4CCC(=O)NC4=O)C5=O)CC3)CC2)CC1` (stereo partly drawn) [Compound 336, (7S)-7-(1-((1-(2-(4-(2-(2,6-dioxopiperidin-3-yl)-1-oxoisoindolin-5-yl)piperidin-1-yl)ethyl)piperidin-4-yl)methyl)piperidin-4-yl)-2-(4-phenoxyphenyl)-4,5,6,7-tetrahydropyrazolo[1,5-a]pyrimidine-3-carboxamide], the IC50 with JeKo-1 cells and with Mino cells was 1000 to 10000 nM each time. In addition, the Dmax on BTK was more than 75%. On BTK (BTK degradation), the DC50 lay within 10 to 50 nM.
`Nc1ncnc2c1c(-c1ccc(Oc3ccccc3)cc1)nn2C1CCC(CN2CC(N3CCN(c4ccc5c(c4)C(=O)N(C4CCC(=O)NC4=O)C5=O)CC3)C2)CC1` (centres unmarked) [Compound 532, 5-(4-(1-((4-(4-amino-3-(4-phenoxyphenyl)-1H-pyrazolo[3,4-d]pyrimidin-1-yl)cyclohexyl)methyl)azetidin-3-yl)piperazin-1-yl)-2-(2,6-dioxopiperidin-3-yl)isoindoline-1,3-dione]: the IC50 in the assay with JeKo-1 cells and in the assay with Mino cells was less than 1000 nM throughout. Further, at BTK (setting [1]), the DC50 was less than 10 nM. In addition, the Dmax on BTK (setting [2]) was more than 90%.
Consider `Nc1ncnc2c1c(-c1ccc(Oc3ccccc3)cc1)nn2C1CCN(CC2CCN(CC3CCN(c4ccc5c(c4)C(=O)N(C4CCC(=O)NC4=O)C5=O)CC3)CC2)CC1` (centres unmarked) [Compound 199, 5-(4-((4-((4-(4-amino-3-(4-phenoxyphenyl)-1H-pyrazolo(3,4-d)pyrimidin-1-yl)piperidin-1-yl)methyl)piperidin-1-yl)methyl)piperidin-1-yl)-2-(2,6-dioxopiperidin-3-yl)isoindoline-1,3-dione], for which the figures for the IC50 in the assay on JeKo-1 cells and with Mino cells were 1000 to 10000 nM and less than 1000 nM, respectively. The Dmax at BTK was more than 90%. At BTK (BTK degradation), this molecule registered a DC50 of 10 to 50 nM.
On to `Nc1ncnc2c1c(-c1ccc(Oc3ccccc3)cc1)nn2C1CCN(CCOCCOCCN2CC=C(c3ccc4c(c3)CN(C3CCC(=O)NC3=O)C4=O)CC2)CC1` (centres unmarked) [Compound 417, 3-(5-(1-(2-(2-(2-(4-(4-amino-3-(4-phenoxyphenyl)-1H-pyrazolo[3,4-d]pyrimidin-1-yl)piperidin-1-yl)ethoxy)ethoxy)ethyl)-1,2,3,6-tetrahydropyridin-4-yl)-1-oxoisoindolin-2-yl)piperidine-2,6-dione], for which the IC50 in the assay on JeKo-1 cells and with Mino cells was 1000 to 10000 nM throughout. Further, the “degradation of BTK protein” value on BTK (Namalwa B lymphocyte cells, various concentrations, 24 hours, Western blot) is “dose-dependent degradation”. The DC50 at BTK (setting [1]) fell in the range of 10 to 50 nM. For the same molecule, the Dmax on BTK (setting [2]) was more than 75%.
For `NC(=O)c1c(-c2ccc(Oc3ccccc3)cc2)nn2c1NCC[C@H]2C1CCN(C(=O)N2CCC(CN3CCC(c4ccc5c(c4)C(=O)N(C4CCC(=O)NC4=O)C5=O)CC3)CC2)CC1` (stereo partly drawn) [Compound 295, (7S)-7-(1-(4-((4-(2-(2,6-dioxopiperidin-3-yl)-1,3-dioxoisoindolin-5-yl)piperidin-1-yl)methyl)piperidine-1-carbonyl)piperidin-4-yl)-2-(4-phenoxyphenyl)-4,5,6,7-tetrahydropyrazolo[1,5-a]pyrimidine-3-carboxamide], the IC50 is 1000 to 10000 nM with JeKo-1 cells and less than 1000 nM with Mino cells. Further, the Dmax at BTK was more than 90%. The same molecule showed a DC50 on BTK (BTK degradation) of 10 to 50 nM.
For `NC(=O)c1c(-c2ccc(Oc3ccccc3)cc2)nn2c1NCC[C@H]2C1CCN(CC2CCN(C(=O)N3CCN(C4CCN(c5ccc6c(c5)CN(C5CCC(=O)NC5=O)C6=O)CC4)CC3)CC2)CC1` (stereo partly drawn) [Compound 402, (7S)-7-(1-((1-(4-(1-(2-(2,6-dioxopiperidin-3-yl)-1-oxoisoindolin-5-yl)piperidin-4-yl)piperazine-1-carbonyl)piperidin-4-yl)methyl)piperidin-4-yl)-2-(4-phenoxyphenyl)-4,5,6,7-tetrahydropyrazolo[1,5-a]pyrimidine-3-carboxamide], the IC50 is 1000 to 10000 nM in the assay on JeKo-1 cells and less than 1000 nM with Mino cells. The DC50 on BTK (setting [1]) lay in the range of 10 to 50 nM. The Dmax at BTK (setting [2]) was more than 90%.
The matching figures for `Nc1ncnc2c1c(-c1ccc(Oc3ccccc3)cc1)nn2C1CCN(CCN2CCC(CSc3ccc4c(c3)CN(C3CCC(=O)NC3=O)C4=O)C2)CC1` (centres unmarked) [Compound 474, 3-(5-(((1-(2-(4-(4-amino-3-(4-phenoxyphenyl)-1H-pyrazolo[3,4-d]pyrimidin-1-yl)piperidin-1-yl)ethyl)pyrrolidin-3-yl)methyl)thio)-1-oxoisoindolin-2-yl)piperidine-2,6-dione]: 1000 to 10000 nM, 1000 to 10000 nM, less than 10 nM and more than 90%.
With `NC(=O)c1c(-c2ccc(Oc3ccccc3)cc2)nn2c1NCCC2C1CCN(CC2CCN(CCN3CCC(c4ccc5c(c4)C(=O)N(C4CCC(=O)NC4=O)C5=O)CC3)CC2)CC1` (centres unmarked) [Compound 319, 7-(1-((1-(2-(4-(2-(2,6-dioxopiperidin-3-yl)-1,3-dioxoisoindolin-5-yl)piperidin-1-yl)ethyl)piperidin-4-yl)methyl)piperidin-4-yl)-2-(4-phenoxyphenyl)-4,5,6,7-tetrahydropyrazolo[1,5-a]pyrimidine-3-carboxamide], the IC50 with JeKo-1 cells is more than 10000 nM; in the assay with Mino cells, 1000 to 10000 nM. The molecule further returned a Dmax on BTK of more than 75%. Besides, on BTK (BTK degradation), the DC50 lay within 10 to 50 nM.

Values taken from patent US12139492B2 (Endotarget Inc., priority 2021, dated 2024).
